Results on 1 compound are retold here after paper PMC8305652, “Copper(II) Complexes Containing Natural Flavonoid Pomiferin Show Considerable In Vitro Cytotoxicity and Anti-inflammatory Effects” (International Journal of Molecular Sciences, 2021).

Experiment [1] deals with breast adenocarcinoma (MCF-7). The experiment in a line: in vitro cytotoxicity, MTT assay. Format: cell-based, human. As to conditions: mean ± SD, at least three independent experiments. The method, then: (§1) The testing was performed on the following human cancer cell lines: breast adenocarcinoma (MCF-7), osteosarcoma (HOS), lung adenocarcinoma (A549), prostate adenocarcinoma (PC-3), ovarian carcinoma (A2780), cisplatin-resistant ovarian carcinoma (A2780R) and colorectal adenocarcinoma (Caco-2) obtained from ATCC collection of cell lines and cultivated according to producer’s instructions.
In general terms: Tetrazolium dyes change colour on reduction, which living cells bring about.

Experiment [2] deals with cisplatin-resistant ovarian carcinoma (A2780R). Put plainly: in vitro cytotoxicity, MTT assay. It is filed as cell-based, human. As to conditions: mean ± SD, at least three independent experiments. The method, then:
as §1

Experiment [3] concerns lung adenocarcinoma (A549). Put plainly: in vitro cytotoxicity, MTT assay. To be noted: mean ± SD, at least three independent experiments. It is filed as cell-based, human. The method, then: as §1
Experiment [4] concerns ovarian carcinoma (A2780). Put plainly: in vitro cytotoxicity, MTT assay. It is filed as cell-based, human. As to conditions: mean ± SD, at least three independent experiments. The method, then: as §1
Experiment [5] concerns prostate adenocarcinoma (PC-3). The experiment in a line: in vitro cytotoxicity, MTT assay. As to conditions: mean ± SD, at least three independent experiments. It is filed as cell-based, human. The method, then: as §1
The test system of a further experiment is osteosarcoma (HOS). Put plainly: in vitro cytotoxicity, MTT assay. It is filed as cell-based, human. As to conditions: mean ± SD, at least three independent experiments.
Experiment [6] concerns primary culture of human hepatocytes (Hep). Put plainly: toxicity against primary culture of human hepatocytes. It is filed as cell-based. To be noted: tested range 0.1–100 μM.
Experiment [7] concerns A2780 cells. The experiment in a line: cell cycle analysis by flow cytometry. Format: cell-based, human. As to conditions: A2780, 15 µM, 24 h; untreated control 21.4 ± 0.8%. The method, then:
Human ovarian cancer cell line A2780 (Sigma, Darmstadt, Germany) were used for this study. Cells were cultivated at 37 °C under a 5% CO2 atmosphere in an RPMI 1640 medium (Sigma Aldrich, Darmstadt, Germany) supplemented with (the final concentrations in medium): L-glutamine (2 mM), fetal bovine serum (FBS, 10%) and PenStrep (5 U penicillin, 50 µg streptomycin/mL).
After 24 h, the cells were washed once with PBS (0.1 M, pH 7.4) and cell cycle analysis was performed according to the protocol of BD Cycletest^TM Plus DNA kit (Becton Dickinson, Franklin Lakes, NJ, USA). Measurements were performed using BD FACSVerse flow cytometer (Becton Dickinson, Franklin Lakes, NJ, USA) in 3 independent experiments, each done in duplicate, while at least 5 × 10^3 events were recorded for each sample.

For experiment [8], the system named is A2780 cells. The experiment in a line: Annexin V/propidium iodide cell death assay, flow cytometry. Format: cell-based, human. As to conditions: A2780, 15 µM, 24 h; mean of three experiments. The method, then:
Both methods were performed according to the manufacturers’ protocols with 1 modification in the caspase induction assay, which was the use of the CellEvent^TM Caspase-3/7 Green Detection Reagent only for detection of Caspase-3/7 activation. […] After 24 h, the cells were washed once with PBS (0.1 M, pH 7.4), detached with trypsin (0.25% in ethylenediaminetetraacetic acid (EDTA), Sigma-Aldrich), resuspended in 500 µL of the culture medium and divided into 2 separate tubes, the first for apoptosis assay and the second one for caspase activation analysis. After staining with appropriate dyes, samples were analyzed on a BD FACSVerse flow cytometer (Becton Dickinson, Franklin Lakes, NJ, USA) in 3 separate experiments, while at least 10^4 events were recorded for each sample prepared in duplicate.
On the technique in general: In flow cytometry, cells or beads pass a laser one at a time.

Experiment [9] relates to caspase 3 (Casp-3) in THP-1 cells. The experiment in a line: Western blotting of apoptosis-related proteins. Format: cell-based, human. As to conditions: THP-1, complexes 4 µM, cisplatin 10 µM, 24 h, Western blot. The method, then:
In addition to the above-mentioned methods, the Western blotting method was used to shed light on the mechanisms associated with caspase 3 activation in the THP-1 cells. Two and a half milliliters of floating THP-1 monocytes resuspended in a serum-free RPMI 1640 medium were seeded into 6-well plates at the concentration of 10^6 cells/mL. Two hours later, complexes 3 and 5 were added at the concentration level of 4 µM. After 24 h incubation, the cells were collected by centrifugation (3000 g/5 min/4 °C), washed by cold PBS and resuspended in an ice-cold lysis buffer (50 mM Tris-HCl pH 7.5, 1 mM EGTA, 1 mM EDTA, 1 mM sodium orthovanadate, 50 mM sodium fluoride, 5 mM sodium pyrophosphate, 270 mM sucrose) with Roche cOmplete protease inhibitors (Roche Diagnostics, Basel, Switzerland). The cell lysates were centrifuged at 3000 g/5 min/4 °C and supernatants were mixed with a 5x Laemmli buffer [containing 250 mM Tris-HCl pH 6.8, 10% (w/v) SDS, 30% (v/v) glycerol, 5% (v/v) β-mercaptoethanol, 0.04% (w/v) bromphenol blue] and incubated at 70 °C for 5 min. […] The membranes were incubated at 4 °C for 16 h with a primary anti-cleaved caspase 3 (p17) antibody at the dilution 1:1000 (Cell Signaling, Danvers, MA, USA; products No. 9664), and an Apoptosis WB Cocktail (Abcam, Cambridge, UK; product No. ab136812) at the dilution recommended by the provider to detect β-actin, cleaved poly-(ADP-ribose) polymerase (PARP) and pro-caspase 3. After washing in a TBST buffer, the secondary anti-rabbit IgG antibody (Sigma-Aldrich, product No. A0545) was diluted 1:2500 and applied to the membranes, which were then incubated for 1 h at the laboratory temperature (~22 °C). The amount of bound secondary antibody was determined using an ECL reagent (Bio-Rad, Hercules, CA, USA). Chemiluminescence was detected using a Syngene PXi4 chemiluminescence imaging system (Cambridge, UK).
A general note: In western blotting, separated proteins are transferred to a membrane and probed.

The subject of experiment [10] is Ea.Hy 926 endothelial hybrid cells. More on the design: method as in PMID 27936296. As to conditions: read-out: IC50 Ea.Hy 926 healthy endothelial hybrid cells; cited from earlier work.
The test system of experiment [11] is 518A2, Panc-1, MCF-7/Topo, KB-V1/Vbl, DLD-1, U-87 MG cancer cell lines. More on the design: method as in PMID 27936296. As to conditions: range over cell lines; read-out: IC50 values on the mentioned cancer cell lines; cited from earlier work.

In the case of `N.N.[Cl][Pt][Cl]` [cisplatin, reference compound], the IC50 in experiment [1] is 30.8 ± 1.8 µM; in [2], more than 80 µM; in [3], more than 80 µM; in experiment [4], 26.3 ± 2.1 µM; in [5], more than 80 µM; in the experiment on osteosarcoma (HOS), 30 ± 5.9 µM. The IC50 in [6] was more than 80 µM; in experiment [10] it was 17.3 ± 1.9 µM; in experiment [11] it was 4 to 32.6 µM. Besides, the “cells in the S phase of the cell cycle” value in the experiment on A2780 cells [7] came to 51.4 ± 2.2%. Further, the “Annexin V +/PI + cells (late apoptotic/secondary necrotic)” value in the experiment with A2780 cells [8] stood at 23.7 ± 2.0%. The “Annexin V +/PI − cells (early apoptotic)” value in the experiment on A2780 cells [8] is reported as 41.5 ± 0.8%. The “proteolytically activated Casp-3 (verified by cleaved PARP-1)” value in [9] is recorded as “detected”.

As a reminder, the IC50 is the concentration at which inhibition is half-maximal.
